According to article PMC9516332 (Frontiers in Oncology, 2022):
Where two headings read alike, the source gives them in different places.

Legend:
Experiment in all cases: Kinase panel profiling at 1 µmol/L (MSA or IMAP), percentage inhibition
Type in all cases: biochemical
[1] = biological target: panel of 255 wild-type kinases (Homo sapiens, UniProt O00311); details: CDC7/ASK kinase assay; 1 µmol/L single concentration; read-out: %-inhibition CDC7/ASK
[2] = biological target: panel of 255 wild-type kinases (Homo sapiens, UniProt O75676); details: MSK2; 1 µmol/L single concentration; read-out: %-inhibition, MSK2
[3] = biological target: panel of 255 wild-type kinases (Homo sapiens, UniProt P04626); details: kinase HER2; 1 µmol/L single concentration; read-out: %-inhibition at 1 µmol/L, HER2
[4] = biological target: panel of 255 wild-type kinases (Homo sapiens, UniProt P04629); details: kinase TRKA; 1 µmol/L single concentration; read-out: %-inhibition at 1 µmol/L, TRKA
[5] = biological target: panel of 255 wild-type kinases (Homo sapiens, UniProt P06239); details: read-out: %-inhibition at 1 µmol/L, LCK
[6] = biological target: panel of 255 wild-type kinases (Homo sapiens, UniProt P07949); details: kinase RET; 1 µmol/L single concentration; read-out: %-inhibition at 1 µmol/L, RET
[7] = biological target: panel of 255 wild-type kinases (Homo sapiens, UniProt P21802); details: kinase FGFR2; 1 µmol/L single concentration; read-out: %-inhibition at 1 µmol/L, FGFR2
[8] = biological target: panel of 255 wild-type kinases (Homo sapiens, UniProt P50613); details: CDK7/CycH/MAT1 kinase assay; 1 µmol/L single concentration; read-out: %-inhibition CDK7/CycH/MAT1
[9] = biological target: panel of 255 wild-type kinases (Homo sapiens, UniProt P54756); details: kinase EPHA5; 1 µmol/L single concentration; read-out: %-inhibition at 1 µmol/L, EPHA5
[10] = biological target: T1, panel of 255 wild-type kinases (Homo sapiens, UniProt Q13470); details: kinase TNK1; 1 µmol/L single concentration; read-out: %-inhibition at 1 µmol/L, TNK1
T1 sequence (Q13470 1-666): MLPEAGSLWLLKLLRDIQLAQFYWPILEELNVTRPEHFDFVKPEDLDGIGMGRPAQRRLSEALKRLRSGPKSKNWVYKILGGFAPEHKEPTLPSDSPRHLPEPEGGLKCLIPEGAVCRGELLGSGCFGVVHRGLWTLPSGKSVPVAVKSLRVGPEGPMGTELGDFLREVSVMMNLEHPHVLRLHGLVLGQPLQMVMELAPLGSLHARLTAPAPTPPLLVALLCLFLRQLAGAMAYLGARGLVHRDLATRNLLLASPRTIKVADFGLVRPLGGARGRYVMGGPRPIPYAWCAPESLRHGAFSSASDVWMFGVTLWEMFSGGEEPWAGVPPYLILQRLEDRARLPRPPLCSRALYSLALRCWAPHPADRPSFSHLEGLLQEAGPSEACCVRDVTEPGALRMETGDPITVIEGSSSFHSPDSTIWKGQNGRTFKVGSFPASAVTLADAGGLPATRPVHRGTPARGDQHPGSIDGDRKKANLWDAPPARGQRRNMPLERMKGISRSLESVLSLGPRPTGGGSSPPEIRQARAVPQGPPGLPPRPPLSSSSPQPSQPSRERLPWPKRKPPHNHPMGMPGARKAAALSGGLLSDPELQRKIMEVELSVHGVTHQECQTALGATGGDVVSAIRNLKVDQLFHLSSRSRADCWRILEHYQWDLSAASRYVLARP

[11] = biological target: panel of 255 wild-type kinases (Homo sapiens, UniProt Q15303); details: read-out: %-inhibition at 1 µmol/L, HER4
[12] = biological target: T2, panel of 255 wild-type kinases (Homo sapiens, UniProt Q9UHD2); details: kinase TBK1; 1 µmol/L single concentration; read-out: %-inhibition at 1 µmol/L, TBK1
T2 sequence (Q9UHD2 1-729): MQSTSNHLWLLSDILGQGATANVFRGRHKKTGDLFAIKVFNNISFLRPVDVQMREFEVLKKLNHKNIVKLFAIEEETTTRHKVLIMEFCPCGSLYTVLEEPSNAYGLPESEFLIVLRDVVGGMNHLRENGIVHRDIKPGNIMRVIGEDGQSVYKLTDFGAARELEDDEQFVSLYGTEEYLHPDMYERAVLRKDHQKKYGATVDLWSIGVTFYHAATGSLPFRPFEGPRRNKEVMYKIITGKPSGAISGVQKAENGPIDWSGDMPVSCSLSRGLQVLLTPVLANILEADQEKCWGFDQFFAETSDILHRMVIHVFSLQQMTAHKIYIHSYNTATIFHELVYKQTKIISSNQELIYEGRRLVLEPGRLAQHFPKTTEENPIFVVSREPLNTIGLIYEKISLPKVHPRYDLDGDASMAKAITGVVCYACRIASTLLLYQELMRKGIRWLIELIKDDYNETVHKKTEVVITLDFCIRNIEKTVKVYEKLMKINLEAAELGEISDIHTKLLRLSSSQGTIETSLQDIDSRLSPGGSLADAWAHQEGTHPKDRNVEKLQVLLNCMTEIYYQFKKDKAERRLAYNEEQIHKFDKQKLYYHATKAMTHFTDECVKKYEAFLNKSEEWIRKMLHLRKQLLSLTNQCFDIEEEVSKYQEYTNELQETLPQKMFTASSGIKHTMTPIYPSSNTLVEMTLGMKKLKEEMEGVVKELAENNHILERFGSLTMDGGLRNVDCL

[13] = kinase LCK, 1 µmol/L single concentration
[14] = kinase HER4, 1 µmol/L single concentration

Row | Structure (SMILES) | inhibition at 1 µM [1] [%] | inhibition at 1 µM [2] [%] | inhibition at 1 µM [3] [%] | inhibition at 1 µM [4] [%] | inhibition at 1 µM [5, 13] [%] | inhibition at 1 µM [6] [%] | inhibition at 1 µM [7] [%] | inhibition at 1 µM [8] [%] | inhibition at 1 µM [9] [%] | inhibition at 1 µM [10] [%] | inhibition at 1 µM [11, 14] [%] | inhibition at 1 µM [12] [%] | inhibition at 1 µM [5] [%] | inhibition at 1 µM [11] [%]
1 | O=C(Nc1cnn2ccc(N3CCC[C@@H]3c3cc(F)ccc3F)nc12)N1CC[C@H](O)C1 [larotrectinib] | -3.24 | -3.36 | -2.32 | 99 | 1.14 | 1.71 | -6.46 | -8 | -0.0881 | -0.876 | 10 | 0.0799 |  | 
2 | FC(F)(F)c1ccc(CNc2ccc(Cc3c[nH]c4ncc(Cl)cc34)cn2)cn1 [pexidartinib] | 0.521 | 4.45 | 6 | 79 | 51 | 88 | 62 | 22 | 4 | 37 | 13 | 6 |  | 
3 | CO[C@]1(C(=O)N[C@@H](C)c2ccc(-n3cc(F)cn3)nc2)CC[C@H](c2nc(C)cc(Nc3cc(C)[nH]n3)n2)CC1 [pralsetinib] | -1.05 | 3.18 | 20 | 96 | 98 | 99 | 98 | 19 | 74 | 71 | 53 | -0.586 |  | 
4 | CCn1c(=O)c(-c2cc(NC(=O)Nc3ccccc3)c(F)cc2Br)cc2cnc(NC)cc21 [ripretinib] | 0.278 | 3 | 5.51 | 42 | 99 | 94 | 72 | -1.48 | 100 | 17 | 36 | 0.403 |  | 
5 | COc1ccc(CN2C3CC2CN(c2ccc(-c4cc(OCC(C)(C)O)cn5ncc(C#N)c45)cn2)C3)cn1 [selpercatinib] | -2 | 5.66 | 2.47 | 33 | 77 | 102 | 100 | 6 | 69 | 30 | 7.42 | 12 |  | 
6 | Cn1cnc2c(F)c(Nc3ccc(Br)cc3Cl)c(C(=O)NOCCO)cc21 [selumetinib] | -0.0396 | -0.42 | 3 | 18 | 8 | 38 | 1.1 | 1.7 | -12 | -8 | 33 | -1.18 |  | 
7 | Cc1cc(Nc2ncnc3ccc(NC4=NC(C)(C)CO4)cc23)ccc1Oc1ccn2ncnc2c1 [tucatinib] | -0.857 | 1.24 | 101 | 20 |  | 35 | 6 | 6 | -13 | 4.33 | 94 | -3 | 20 | 
8 | C=CC(=O)N1CCC([C@@H]2CCNc3c(C(N)=O)c(-c4ccc(Oc5ccccc5)cc4)nn32)CC1 [zanubrutinib] | -4 | -4 | 69 | 9 | 67 | 16 | 2.54 | -9 | 0.0392 | 1.66 |  | 0.115 |  | 99
